Experimental data taken from patent EP4664463A1, “COMPUTER-IMPLEMENTED METHOD FOR OLFACTORY PROPERTY PREDICTION” (Givaudan SA, priority 2024, dated 2025).
Read-outs that look alike come from different tables or passages of the source. One block for each molecule: values may come before it.

How the values were obtained:
[1] = target: T1, OR identified in the library screening (receptor named per line) (Homo sapiens, UniProt Q8NG80); experiment: Confirmatory dose-response of library hits, wild-type OR vs OR with C-terminus SEQ ID NO: 221 (Table 17); assay type: cell-based; conditions: receptor OR2L5, wild-type sequence; read-out: Potency EC50 wild-type (converted)
T1 construct: expressed in transfected cells; host or cells: HEK293T stably expressing human RTP1S(V227I) and RTP2(L220R) (general method)
Experimental: (§2) Selected ligand - OR pairs were then tested in a confirmatory test with a dose response analysis.
(§3) Dose-response analysis with the cognate ligand was then performed for both the wild-type and the modified sequence.

OR5AN1 = target: T2, OR5AN1 (Homo sapiens, UniProt Q8NGI8); experiment: Chimeric OR5AN1 with C-terminal sequence of OR1N2 (luciferase); assay type: cell-based
T2 construct: expressed in transfected cells; host or cells: HEK293T stably expressing human RTP1S(V227I) and RTP2(L220R)
Source text: Similarly, the C-terminal sequence of OR5AN1 was replaced with the C-terminal sequence of the ambrettolide receptor OR1 N2.

OR5A2 [2] = experiment: Dose-dependent luciferase induction by muscone of OR5A2 C-terminal variants; assay type: cell-based, human; conditions: modified OR5A2
Source text: (§1) To create an expression plasmid, an OR coding sequence fused at the end of TM7 to the desired C-terminus sequence was synthesized by a DNA synthesis service provider (BioCat GmbH, Germany) and inserted into pcDNA3.1(+) (Invitrogen, MA, USA) downstream of the CMV promoter sequence (SEQ ID NO: 82) using BamHI and Notl restriction sites. All the synthetic OR nucleotide sequences described below in Examples 1-15 further contained at their N-terminus a nucleotide sequence encoding a signal peptide (mmLucy-FLAG-rho, SeQ ID NOs: 80, 81) and at the C-terminus the bgh terminator sequence (SEQ ID NO: 83). All the OR expression plasmids also contain a Kozak sequence (GCCACC) between the BamHI restriction site and the start codon of the signal peptide. These plasmids thus contain a constitutively expressed OR gene.
Table 11. Dose-dependent induction OR5A2 with two different variants of the C-terminal sequence motif (Shown is fold-induction of luciferase)

[3] = system: library of all class II OR with modified C-terminal domain RNKEVKKAIKRLFKRKCCRRR (SEQ ID NO: 221); experiment: Screening of the library of all class II OR with single odorants (luciferase); assay type: cell-based, human; conditions: full class II OR library (n = 408); maximal non-cytotoxic concentration
Experimental: All human class II OR and all key genetic variants of these OR were synthesized with a sequence coding for an identical modified C-terminal domain […] (SEQ ID NO: 221) in the vector pcDNA3.1(+) to generate a library of all class II OR with an improved C-terminal domain. Class II OR library members with modified C-terminal domains
Parallel transfection experiments were conducted with all these plasmids (n = 408) and cells expressing the different OR were stimulated with one given ligand at a time, tested at the maximal, clearly non-cytotoxic concentration. In total 26 different ligands were tested on the full library of class II receptors.

OR5A2 [4] = target: T3, OR5A2 (Homo sapiens, UniProt Q8NGI9); experiment: Luciferase dose-response, wild-type vs changed C-terminus (SEQ ID NO: 86); assay type: cell-based; conditions: OR5A2 with SEQ ID NO: 86
T3 construct: expressed in transfected cells; host or cells: HEK293T cells with stably integrated human RTP1S (V227I) and RTP2 (L220R)
T3 sequence (Q8NGI9 with tags, fused parts or gaps): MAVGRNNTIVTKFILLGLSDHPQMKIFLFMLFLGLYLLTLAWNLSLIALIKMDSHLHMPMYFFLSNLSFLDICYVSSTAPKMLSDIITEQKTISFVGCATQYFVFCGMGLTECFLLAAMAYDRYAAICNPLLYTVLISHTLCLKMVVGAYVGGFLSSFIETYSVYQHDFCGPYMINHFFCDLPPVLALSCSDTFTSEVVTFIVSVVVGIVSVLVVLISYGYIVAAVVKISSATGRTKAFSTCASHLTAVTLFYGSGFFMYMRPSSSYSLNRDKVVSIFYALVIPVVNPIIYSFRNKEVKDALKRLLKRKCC
Source text: as §1

OR5A2 [5] = target: T4, OR5A2 (Homo sapiens, UniProt Q8NGI9); experiment: as above; assay type: cell-based; conditions: wild-type OR5A2
T4 construct: expressed in transfected cells; host or cells: HEK293T cells with stably integrated human RTP1S (V227I) and RTP2 (L220R)
T4 sequence (Q8NGI9 1-324): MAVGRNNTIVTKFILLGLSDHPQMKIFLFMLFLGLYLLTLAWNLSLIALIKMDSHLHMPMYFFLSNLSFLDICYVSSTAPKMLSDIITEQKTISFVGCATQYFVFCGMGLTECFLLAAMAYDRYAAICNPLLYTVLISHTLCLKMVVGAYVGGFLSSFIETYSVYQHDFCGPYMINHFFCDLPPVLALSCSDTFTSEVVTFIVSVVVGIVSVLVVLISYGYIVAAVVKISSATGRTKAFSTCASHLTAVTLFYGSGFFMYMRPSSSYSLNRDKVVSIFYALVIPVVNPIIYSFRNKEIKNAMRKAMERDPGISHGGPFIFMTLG
Source text: as §1

OR9Q2 [6] = target: T5, OR9Q2 (Homo sapiens, UniProt Q8NGE9); experiment: as above; assay type: cell-based; conditions: changed C-term SEQ ID NO: 86; read-out: Potency EC50
T5 construct: expressed in transfected cells; host or cells: HEK293T cells stably expressing human RTP1S (V227I) and RTP2 (L220R)
T5 sequence (Q8NGE9 with tags, fused parts or gaps): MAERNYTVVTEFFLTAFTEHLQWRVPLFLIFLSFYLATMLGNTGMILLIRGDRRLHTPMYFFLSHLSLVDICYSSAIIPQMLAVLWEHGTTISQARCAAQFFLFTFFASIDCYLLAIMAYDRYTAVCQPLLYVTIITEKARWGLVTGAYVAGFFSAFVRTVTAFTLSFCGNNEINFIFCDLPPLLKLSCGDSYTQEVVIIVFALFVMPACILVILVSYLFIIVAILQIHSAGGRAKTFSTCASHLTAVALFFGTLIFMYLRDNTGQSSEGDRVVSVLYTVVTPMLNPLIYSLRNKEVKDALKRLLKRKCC

OR9Q2 [7] = target: T6, OR9Q2 (Homo sapiens, UniProt Q8NGE9); experiment: as above; assay type: cell-based; conditions: wild-type; read-out: Potency EC50
T6 construct: expressed in transfected cells; host or cells: HEK293T cells stably expressing human RTP1S (V227I) and RTP2 (L220R)
T6 sequence (Q8NGE9 whole entry): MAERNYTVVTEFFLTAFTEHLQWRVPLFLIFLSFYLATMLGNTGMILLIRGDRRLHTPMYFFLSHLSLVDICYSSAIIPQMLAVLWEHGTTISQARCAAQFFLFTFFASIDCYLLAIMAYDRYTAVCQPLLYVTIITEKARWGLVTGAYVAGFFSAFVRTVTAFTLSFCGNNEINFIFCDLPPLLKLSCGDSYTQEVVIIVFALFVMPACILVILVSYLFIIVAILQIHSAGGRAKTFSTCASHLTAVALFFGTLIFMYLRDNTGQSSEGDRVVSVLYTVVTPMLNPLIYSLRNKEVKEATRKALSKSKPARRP

[8] = target: T7, OR identified in the library screening (receptor named per line) (Homo sapiens, UniProt Q8NGG4); experiment: Confirmatory dose-response of library hits, wild-type OR vs OR with C-terminus SEQ ID NO: 221 (Table 17); assay type: cell-based; conditions: receptor OR8H1, wild-type sequence; read-out: Potency EC50 wild-type (converted)
T7 construct: expressed in transfected cells; host or cells: HEK293T stably expressing human RTP1S(V227I) and RTP2(L220R) (general method)
Experimental: as §2, §3

[9] = target: T8, OR identified in the library screening (receptor named per line) (Homo sapiens, UniProt Q8WZ84); experiment: as above; assay type: cell-based; conditions: receptor OR8D1, wild-type sequence; read-out: Potency EC50 wild-type (converted)
T8 construct: expressed in transfected cells; host or cells: HEK293T stably expressing human RTP1S(V227I) and RTP2(L220R) (general method)
Experimental: as §2, §3

[10] = target: T9, OR identified in the library screening (receptor named per line) (Homo sapiens, UniProt Q8NGN4); experiment: as above; assay type: cell-based; conditions: receptor OR10G9, wild-type sequence; read-out: Potency EC50 wild-type (converted)
T9 construct: expressed in transfected cells; host or cells: HEK293T stably expressing human RTP1S(V227I) and RTP2(L220R) (general method)
Experimental: as §2, §3

[11] = target: T10, OR identified in the library screening (receptor named per line) (Homo sapiens, UniProt Q8NGC4, S73G); experiment: as above; assay type: cell-based; conditions: receptor OR10G3(S73G), wild-type sequence; read-out: Potency EC50 wild-type (converted)
T10 construct: expressed in transfected cells; host or cells: HEK293T stably expressing human RTP1S(V227I) and RTP2(L220R) (general method)
Experimental: as §2, §3

[12] = target: T11, OR identified in the library screening (receptor named per line) (Homo sapiens, UniProt Q8NGJ0); experiment: as above; assay type: cell-based
T11 construct: expressed in transfected cells; host or cells: HEK293T stably expressing human RTP1S(V227I) and RTP2(L220R) (general method)
Experimental: as §2, §3

T2 sequence (Q8NGI8 with tags, fused parts or gaps limits assumed): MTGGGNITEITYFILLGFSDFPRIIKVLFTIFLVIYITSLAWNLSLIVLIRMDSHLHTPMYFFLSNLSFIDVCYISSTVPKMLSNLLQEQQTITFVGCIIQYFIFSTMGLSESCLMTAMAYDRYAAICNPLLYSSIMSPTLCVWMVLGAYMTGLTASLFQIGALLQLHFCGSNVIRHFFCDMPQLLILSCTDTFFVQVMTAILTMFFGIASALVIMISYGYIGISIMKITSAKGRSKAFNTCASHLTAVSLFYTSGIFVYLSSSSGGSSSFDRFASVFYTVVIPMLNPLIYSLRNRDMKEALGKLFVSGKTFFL
T10 sequence (Q8NGC4 whole entry S73G): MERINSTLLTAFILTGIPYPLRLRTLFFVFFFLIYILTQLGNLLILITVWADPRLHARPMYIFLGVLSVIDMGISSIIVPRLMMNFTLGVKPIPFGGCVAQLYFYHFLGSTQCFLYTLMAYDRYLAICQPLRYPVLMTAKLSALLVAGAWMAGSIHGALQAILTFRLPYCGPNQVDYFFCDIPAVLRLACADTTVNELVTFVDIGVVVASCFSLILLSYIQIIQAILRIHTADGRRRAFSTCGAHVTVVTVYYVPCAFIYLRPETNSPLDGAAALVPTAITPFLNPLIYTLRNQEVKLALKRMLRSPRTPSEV

SMILES: CCOC(=O)C1CCCCC1 [Ethyl cyclohexanecarboxylate (Esterly), Ethyl cyclohexanecarboxylate]
EC50 [1]: 115 µM

SMILES: Cc1ccc(O)cc1 [Para-Cresol]
EC50 (OR9Q2 [6]): 2.8 µM
EC50 (OR9Q2 [7]): 30.7 µM

SMILES: N#CC(=C1CCCCC1)c1ccccc1 [Peonile]
EC50 [8]: 17.3 µM

SMILES: COc1cc(C=O)ccc1O [Vanillin]
EC50 [11]: 261 µM

SMILES: CC(=O)/C=C/C1=C(C)CCCC1(C)C [β-lonone]
EC50 [12]: 48.3 µM

Further lines, with some results ahead:

functional response (OR5AN1): not showing any functional response
concentration at which activation occurs (OR5A2 [4]): 1 µM
activation of the wild-type receptor (OR5A2 [5]): No activation
SMILES: C[C@@H]1CCCCCCCCCCCCC(=O)C1 [Muscone]
concentration at which induction starts (OR5A2 [2]): 0.03 µM
Activated OR and OR variants [3]: OR5AN1, OR5A2

EC50 [9]: 19 µM
SMILES: CC1=C(O)C(=O)OC1C (stereo not shown) [Sotolon e]

EC50 [10]: 91.4 µM
SMILES: CCOc1cc(C)ccc1O [Ultravan il]
